{"source": "BindingDB's records for doi:10.1016/j.bmcl.2007.05.064", "about": "(Sungkyunkwan University, 2007)", "biological_target": "cGMP-specific 3',5'-cyclic phosphodiesterase (Homo sapiens, UniProt O76074)", "assay": "Inhibition of PDE5"}
{"smiles": "CCCc1nn(C)c2c(=O)[nH]c(-c3cc(S(=O)(=O)N4CCN(C)CC4)cc4c3OCO4)nc12", "values": [{"measurement": "IC50", "result": 426, "unit": "nM"}]}
